Data published in ChEMBL document CHEMBL1159203, “Agelastatins C and D, new pentacyclic bromopyrroles from the sponge Cymbastela sp., and potent arthropod toxicity of (-)-agelastatin A” (J Nat Prod, 1998).

Test system: Artemia franciscana
Assay: Toxicity against Artemia franciscana nauplii larvae
Type: organism-based
Settings: in vivo

CN1C(=O)N[C@@]2(O)[C@@H]3NC(=O)c4ccc(Br)n4[C@@H]3C[C@@]12O
LC50: 220 ppm
